The target in assay [1] is indoleamine 2, 3-dioxygenase (IDO1) (Homo sapiens, UniProt P14902). The assay can be described thus: PBMC IDO1 assay (kynurenine via mass spectrometry). The format is cell-based. In outline: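 Human PBMCs (50,000/well) stimulated with IFN-γ 100 ng/ml and LPS 50 ng/ml to induce IDO1, exposed to 11-point 3-fold compound dilutions for 2 days at 37° C. Supernatant kynurenine measured by RapidFire MS relative to internal standard; XC50 from four-parameter fit. Cytotoxicity tracked in parallel by ATP luminescence.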

Assay [2] has as its system PAN02 pancreatic cells. The conditions noted are these: orally dosed, cited from earlier work.
Assay [3] has as its system conversion of T cells into CD4+FoxP3+ Tregs. To be noted: co-culture of DCs and naive CD4+CD25- T cells; cited from earlier work.
Where [4] appears, read: human PBMC stimulated with IFN-γ and LPS, 2 days, kynurenine by mass spectrometry, recorded as pIC50, read-out: PBMC PXC50_ (converted).

Read-outs that look alike come from different tables or passages of the source.

Chain of indoleamine 2, 3-dioxygenase (IDO1) (P14902 whole entry): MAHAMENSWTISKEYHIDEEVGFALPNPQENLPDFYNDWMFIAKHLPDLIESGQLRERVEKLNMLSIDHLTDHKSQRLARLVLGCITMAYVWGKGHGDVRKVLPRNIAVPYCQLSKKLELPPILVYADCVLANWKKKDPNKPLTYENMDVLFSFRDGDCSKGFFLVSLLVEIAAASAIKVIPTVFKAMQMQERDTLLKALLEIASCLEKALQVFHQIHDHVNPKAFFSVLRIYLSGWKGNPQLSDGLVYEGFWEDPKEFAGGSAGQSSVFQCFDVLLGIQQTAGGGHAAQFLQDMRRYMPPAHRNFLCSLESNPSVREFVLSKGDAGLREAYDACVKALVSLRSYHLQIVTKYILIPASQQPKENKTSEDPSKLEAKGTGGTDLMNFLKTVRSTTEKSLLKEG

For `COc1cc(OC(=O)N2CCC(C(NC(=O)c3ccc(F)cc3)C3CC3)CC2)ccn1` (stereo not shown) [Example 86, 2-methoxypyridin-4-yl 4-{cyclopropyl[(4-fluorophenyl)formamido]methyl}piperidine-1-carboxylate], the IC50 in assay [1] (setting [4]) is 631 nM.
In turn, `O=C(NC(c1ccncc1)C1CCN(C(=O)Oc2cccnc2)CC1)c1ccc(F)cc1` (stereo not shown) [Example 87, pyridin-3-yl 4-{[(4-fluorophenyl)formamido](pyridin-4-yl)methyl}piperidine-1-carboxylate] showed an IC50 in assay [1] of 631 nM.
For the compound `O=C(NC(c1ccccc1)C1CCN(C(=O)Oc2ccccc2)CC1)c1ccc(C(F)(F)F)cn1` (stereo not shown) [Example 88, phenyl 4-[phenyl({[5-(trifluoromethyl)pyridin-2-yl]formamido})methyl]piperidine-1-carboxylate], the IC50 in assay [1] (setting [4]) was 631 nM.
Same read-out and setting: with `N#Cc1ccc(C(=O)NC(c2ccccc2)C2CCN(C(=O)Oc3ccccc3)CC2)nc1` (stereo not shown) [Example 89, phenyl 4-{[(5-cyanopyridin-2-yl)formamido](phenyl)methyl}piperidine-1-carboxylate] the figure was 631 nM.
With `O=C(N[C@@H](C1CC1)C1CCN(C(=O)Oc2ccccc2)CC1)c1ccc(Cl)s1` [Example 91, phenyl 4-[(S)-[(5-chlorothiophen-2-yl)formamido](cyclopropyl)methyl]piperidine-1-carboxylate], the IC50 in assay [1] (setting [4]) is 631 nM.
Take `Cc1c(F)cccc1OC(=O)N1CCC([C@H](C)NC(=O)c2ccc(Cl)s2)CC1` [Example 92, 3-fluoro-2-methylphenyl 4-[(1S)-1-[(5-chlorothiophen-2-yl)formamido]ethyl]piperidine-1-carboxylate]: in assay [1] (setting [4]), the IC50 was 631 nM.
Take `COc1cc(OC(=O)N2CCC(C(NC(=O)c3ccc(F)cc3)c3ccncc3)CC2)ccn1` (stereo not shown) [Example 93, 2-methoxpyridin-4-yl 4-{[(4-fluorophenyl)formamido](pyridin-4-yl)methyl}piperidine-1-carboxylate]: in assay [1] (setting [4]), the IC50 was 794 nM.
As to `O=C(NC(c1ccncc1)C1CCN(C(=O)Oc2ccncc2)CC1)c1ccc(F)cc1` (stereo not shown) [Example 94, pyridin-4-yl 4-{[(4-fluorophenyl)formamido](pyridin-4-yl)methyl}piperidine-1-carboxylate], the IC50 in assay [1] (setting [4]) is 1000 nM.
`C[C@H](NC(=O)c1ccc(Cl)s1)C1CCN(C(=O)Oc2ccccc2)CC1` [Example 95, phenyl 4-[(1S)-1-[(5-chlorothiophen-2-yl)formamido]ethyl]piperidine-1-carboxylate]: the IC50 in assay [1] (setting [4]) is 1000 nM.
Still for that read-out and setting: with `O=C(NC(c1ccncc1)C1CCN(C(=O)Oc2ccccn2)CC1)c1ccc(F)cc1` (stereo not shown) [Example 96, pyridin-2-yl 4-{[(4-fluorophenyl)formamido](pyridin-4-yl)methyl}piperidine-1-carboxylate] the figure was 1260 nM.
For the compound `O=C(N[C@H](CCCO)C1CCN(C(=O)Oc2cccnc2F)CC1)c1ccc(F)cc1` [Example 97, 2-fluoropyridin-3-yl 4-[(1R)-1-[(4-fluorophenyl)formamido]-4-hydroxybutyl]piperidine-1-carboxylate], the IC50 in assay [1] was 1260 nM.
Regarding `CC(C)(C)OC(=O)N1CCC(C(NC(=O)c2ccccc2)c2ccccc2)CC1` (stereo not shown) [Example 98, tert-butyl 4-[phenyl(phenylformamido)methyl]piperidine-1-carboxylate], the IC50 in assay [1] (setting [4]) was 1580 nM.
Regarding `COc1ccc(OC(=O)N2CCC(C(NC(=O)c3ccc(F)cc3)c3ccncc3)CC2)cn1` (stereo not shown) [Example 99, 6-methoxpyridin-3-yl 4-{[(4-fluorophenyl)formamido](pyridin-4-yl)methyl}piperidine-1-carboxylate], the “PBMC PXC50_” value in assay [1] (human PBMC stimulated with IFN-γ and LPS, 2 days, kynurenine by mass spectrometry, recorded as pIC50) was found to be 5.6.
Turning to `O=C(NC(c1ccncc1)C1CCN(C(=O)OC2CCCCC2)CC1)c1ccc(F)cc1` (stereo not shown) [Example 100, cyclohexyl 4-{[(4-fluorophenyl)formamido](pyridin-4-yl)methyl}piperidine-1-carboxylate], the IC50 in assay [1] (setting [4]) is 3160 nM.
Consider `Cc1c(OC(=O)N2CCC([C@@H](C)NC(=O)c3ccc(Cl)s3)CC2)ccnc1F` [Example 101, 2-fluoro-3-methylpyridin-4-yl 4-[(1R)-1-[(5-chlorothiophen-2-yl)formamido]ethyl]piperidine-1-carboxylate], for which, in assay [1] (setting [4]), the IC50 was 3160 nM.
For `CC(C)(C)OC(=O)N1CCC(C(NC(=O)c2cccnc2)c2ccccc2)CC1` (stereo not shown) [Example 102, tert-butyl 4-{phenyl[(pyridin-3-yl)formamido]methyl}piperidine-1-carboxylate], the IC50 in assay [1] (setting [4]) was 5010 nM.
Take `NC(=O)c1ccc(C(=O)NC(c2ccccc2)C2CCN(C(=O)Oc3ccccc3)CC2)nc1` (stereo not shown) [Example 103, phenyl 4-{[(5-carbamoylpyridin-2-yl)formamido](phenyl)methyl}piperidine-1-carboxylate]: the IC50 in assay [1] (setting [4]) is 10000 nM.
For the compound `Cc1ncccc1OC(=O)N1CCC([C@@H](CC(C)C)NC(=O)c2ccc(Cl)cc2)CC1` [Example 104, (R)-2-methylpyridin-3-yl 4-(1-(4-chlorobenzamido)-3-methylbutyl)piperidine-1-carboxylate], the IC50 in assay [1] is 1.26 nM.
For the compound `COc1ncccc1OC(=O)N1CCC([C@@H](CC(C)C)NC(=O)c2ccc(F)cc2)CC1` [Example 105, (R)-2-methoxypyridin-3-yl 4-(1-(4-fluorobenzamido)-3-methylbutyl)piperidine-1-carboxylate], the IC50 in assay [1] is 1.26 nM.
Consider `COc1c(F)cccc1OC(=O)N1CCC([C@@H](CC(C)C)NC(=O)c2ccc(F)cc2)CC1` [Example 106, (R)-3-fluoro-2-methoxyphenyl 4-(1-(4-fluorobenzamido)-3-methylbutyl)piperidine-1-carboxylate], for which, in assay [1] (setting [4]), the IC50 was 1.58 nM.
For the compound `Cc1ncnc(C)c1OC(=O)N1CCC([C@@H](CC(C)C)NC(=O)c2ccc(Cl)cc2)CC1` [Example 107, (R)-4,6-dimethylpyrimidin-5-yl 4-(1-(4-chlorobenzamido)-3-methylbutyl)piperidine-1-carboxylate], the IC50 in assay [1] (setting [4]) was 1.58 nM.
Same read-out and setting: to `CC(C)C[C@@H](NC(=O)c1cccc2cn[nH]c12)C1CCN(C(=O)Oc2ccccc2)CC1` [Example 109, (R)-phenyl 4-(1-(1H-indazole-7-carboxamido)-3-methylbutyl)piperidine-1-carboxylate] belongs 6.31 nM; to `CC(C)CC(NC(=O)c1cccc2cn[nH]c12)C1CCN(C(=O)Oc2ccccc2)CC1` (stereo not shown) [Example 110, phenyl 4-(1-(1H-indazole-7-carboxamido)-3-methylbutyl)piperidine-1-carboxylate], 12.6 nM; to `COc1ccc([C@@H](NC(=O)c2ccc(Cl)cc2)C2CCN(C(=O)Oc3ccccc3)CC2)cn1` [Example 111, (S)-phenyl 4-((4-chlorobenzamido)(6-methoxypyridin-3-yl)methyl)piperidine-1-carboxylate], 63.1 nM.
With `Cc1ncnc(C)c1OC(=O)N1CCC([C@@H](NC(=O)c2ccc(Cl)s2)C2CC2)CC1` [Example 112, (S)-4,6-dimethylpyrimidin-5-yl 4-((5-chlorothiophene-2-carboxamido)(cyclopropyl)methyl)piperidine-1-carboxylate], the IC50 in assay [1] (setting [4]) is 10 nM.
`NS(=O)(=O)NCCNc1nonc1C(=NO)Nc1ccc(F)c(Br)c1` [INCB204360]: in assay [2] (immunocompetent mice), the “inhibition of tumor growth” value is listed as “significant dose-dependent inhibition of tumor growth”. Besides, the “effect against the same tumor” value in assay [2] (tumor implanted in immune-deficient mice) is reported as “without effect”. In addition, in assay [3], the “conversion of T cells into CD4+FoxP3+ Tregs” value was “blocked the conversion”.

Source of the values: patent publication US10927078B2, “Modulators of indoleamine 2,3-dioxygenase” (GLAXOSMITHKLINE INTELLECTUAL PROPERTY DEVELOPMENT LIMITED, priority 2017, dated 2021).
